Usually IC50 stands for the concentration at which inhibition is half-maximal.

This experiment deals with lung cancer cell lines (e.g. NCI-H23, NCI-H1229). The experiment is described as follows: Cell based assay, cell viability (CellTiter-Glo), lung cancer cell lines. Particulars: Homo sapiens, 72 hours treatment, CellTiter-Glo. Summed up:
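Each commercial line was plated and allowed 24 h to settle at constant temperature. Compound exposure ran 72 h at final concentrations spanning 0 to 2 μM. Cell viability was then determined by luminescent ATP detection.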
(In general: ATP-based viability assays read luminescence as a measure of living cells.)

Where [1] appears, read: A549 cells, read-out: IC50, lung cancer cell line A549.
Where [2] appears, read: DMS 114 cells, read-out: IC50, lung cancer cell line DMS 114.
Setting [3] is: NCI-H23 cells, read-out: IC50, lung cancer cell line NCI-H23.
Where [4] appears, read: NCI-H460 cells, read-out: IC50, lung cancer cell line NCI-H460.
Setting [5] is: NCI-H522 cells, read-out: IC50, lung cancer cell line NCI-H522.
[6] abbreviates: NCI-H1299 cells, read-out: IC50, lung cancer cell line NCI-H1299.
Setting [7] is: NCI-H1437 cells, read-out: IC50, lung cancer cell line NCI-H1437.

Each structure is given as a SMILES string. Read-outs that look alike come from different tables or passages of the source.

`CC(=O)c1c(S(=O)(=O)Cc2ccccc2)nc2c(Br)ccc(Cl)c2c1O` [Compound 54, 1-(2-(benzylsulfonyl)-8-bromo-5-chloro-4-hydroxyquinolin-3-yl)ethan-1-one]: the IC50 by setting is: under setting [1], more than 2000 nM; under setting [2], more than 2000 nM; (MRC-5 cells, read-out: IC50) more than 2000 nM; under setting [3], more than 2000 nM; under setting [4], more than 2000 nM; under setting [5], more than 2000 nM. For the same compound, the IC50 reads like this: under setting [6], more than 2000 nM; under setting [7], more than 10000 nM.
Regarding `CC(=O)c1c([S+]([O-])Cc2ccccc2C#N)[nH]c2c(Br)ccc(Cl)c2c1=O` (stereo not shown) [Compound 58, 2-(((3-acetyl-8-bromo-5-chloro-4-oxo-1,4-dihydroquinolin-2-yl)sulfinyl)methyl)benzonitrile], the concentration for half-maximal inhibition (IC50) by setting is: under setting [1], more than 2000 nM; under setting [2], more than 2000 nM; (MRC-5 cells, read-out: IC50) 760 nM; under setting [3], 800 nM; under setting [4], more than 2000 nM; under setting [5], 1940 nM. Moreover, the IC50 is 1150 nM under setting [6] and more than 10000 nM under setting [7].
As for `COCSc1[nH]c2c(Br)ccc(Cl)c2c(=O)c1C(C)=O` [Compound 61, 3-acetyl-8-bromo-5-chloro-2-((methoxymethyl)thio)quinolin-4(1H)-one], the concentration for half-maximal inhibition (IC50) reads like this: under setting [1], more than 2000 nM; under setting [2], more than 2000 nM; (MRC-5 cells, read-out: IC50) more than 2000 nM; under setting [3], more than 2000 nM; under setting [4], more than 2000 nM; under setting [5], more than 2000 nM. In addition, the concentration for half-maximal inhibition (IC50) is more than 2000 nM under setting [6] and more than 10000 nM under setting [7].
For `CC(=O)c1c(S)[nH]c2c(Br)ccc(Cl)c2c1=O` [Compound 62, 3-acetyl-8-bromo-5-chloro-2-mercaptoquinolin-4(1H)-one], the half-maximal inhibitory concentration (IC50) was more than 2000 nM under setting [1]; more than 2000 nM under setting [2]; more than 2000 nM (MRC-5 cells, read-out: IC50); more than 2000 nM under setting [3]; more than 2000 nM under setting [4]; more than 2000 nM under setting [5]. In addition, the IC50 was more than 2000 nM under setting [6] and more than 10000 nM under setting [7].
In the case of `CC(=O)c1c([S+]([O-])Cc2ccc(C(=O)c3ccccc3)cc2)[nH]c2c(Br)ccc(Cl)c2c1=O` (stereo not shown) [Compound 63, 3-acetyl-2-((4-benzoylbenzyl)sulfinyl)-8-bromo-5-chloroquinolin-4(1H)-one], the half-inhibitory concentration (IC50) is, setting by setting: under setting [1], more than 2000 nM; under setting [2], more than 2000 nM; (MRC-5 cells, read-out: IC50) more than 2000 nM; under setting [3], 1700 nM; under setting [4], more than 2000 nM; under setting [5], more than 2000 nM. Also, the IC50 was more than 2000 nM under setting [6] and more than 10000 nM under setting [7].
Take `CC(=O)c1c([S+]([O-])CC#N)[nH]c2c(Br)ccc(Cl)c2c1=O` (stereo not shown) [Compound 65, 2-((3-acetyl-8-bromo-5-chloro-4-oxo-1,4-dihydroquinolin-2-yl)sulfinyl)acetonitrile]: the IC50 runs as follows: under setting [1], more than 2000 nM; under setting [2], more than 2000 nM; (MRC-5 cells, read-out: IC50) more than 2000 nM; under setting [3], more than 2000 nM; under setting [4], more than 2000 nM; under setting [5], more than 2000 nM. For the same compound, the IC50 is more than 2000 nM under setting [6] and more than 10000 nM under setting [7].
As to `CC(=O)c1c(SCC#N)[nH]c2c(Br)ccc(Cl)c2c1=O` [Compound 66, 2-((3-acetyl-8-bromo-5-chloro-4-oxo-1,4-dihydroquinolin-2-yl)thio)acetonitrile], the IC50 is more than 2000 nM under setting [1]; more than 2000 nM under setting [2]; more than 2000 nM (MRC-5 cells, read-out: IC50); more than 2000 nM under setting [3]; more than 2000 nM under setting [4]; more than 2000 nM under setting [5]. Also, the half-inhibitory concentration (IC50) runs as follows: under setting [6], more than 2000 nM; under setting [7], more than 10000 nM.
As to `CC(=O)c1c(S/C=C\C(=O)O)[nH]c2c(Br)ccc(Cl)c2c1=O` [Compound 67, (Z)-3-((3-acetyl-8-bromo-5-chloro-4-oxo-1,4-dihydroquinolin-2-yl)thio)acrylic acid], the IC50 is more than 2000 nM under setting [1]; more than 2000 nM under setting [2]; more than 2000 nM (MRC-5 cells, read-out: IC50); more than 2000 nM under setting [3]; more than 2000 nM under setting [4]; more than 2000 nM under setting [5]. Also, the half-maximal inhibitory concentration (IC50) is more than 2000 nM under setting [6] and more than 10000 nM under setting [7].
Regarding `CC(=O)c1c([S+]([O-])Cc2ccc(S(F)(F)(F)(F)F)cc2)[nH]c2c(Br)ccc(Cl)c2c1=O` (stereo not shown) [Compound 68, 3-acetyl-8-bromo-5-chloro-2-((4-(pentafluoro-16-sulfanyl)benzyl)sulfinyl)quinolin-4(1H)-one], the half-maximal inhibitory concentration (IC50) was 1380 nM under setting [1]; more than 2000 nM under setting [2]; 950 nM (MRC-5 cells, read-out: IC50); 770 nM under setting [3]; 1410 nM under setting [4]; more than 2000 nM under setting [5]. Also, the IC50 reads like this: under setting [6], 1240 nM; under setting [7], more than 10000 nM.
Consider `CC(=O)c1c([S+]([O-])Cc2ccc(S(F)(F)(F)(F)F)cc2F)[nH]c2c(Br)ccc(Cl)c2c1=O` (stereo not shown) [Compound 69, 3-acetyl-8-bromo-5-chloro-2-((2-fluoro-4-(pentafluoro-16-sulfanyl)benzyl)sulfinyl)quinolin-4(1H)-one], for which the IC50 was 1780 nM under setting [1]; more than 2000 nM under setting [2]; 1050 nM (MRC-5 cells, read-out: IC50); 1130 nM under setting [3]; 1620 nM under setting [4]; more than 2000 nM under setting [5]. Besides, the IC50 is 1310 nM under setting [6] and more than 10000 nM under setting [7].
On to `CC(=O)c1c([S+]([O-])Cc2cccc(S(F)(F)(F)(F)F)c2)[nH]c2c(Br)ccc(Cl)c2c1=O` (stereo not shown) [Compound 77, 3-acetyl-8-bromo-5-chloro-2-((3-(pentafluoro--sulfanyl)benzyl)sulfinyl)quinolin-4(1H)-one], for which the IC50 is 1840 nM under setting [1]; more than 2000 nM under setting [2]; 1060 nM (MRC-5 cells, read-out: IC50); 960 nM under setting [3]; 1510 nM under setting [4]; more than 2000 nM under setting [5]. Also, the IC50 by setting is: under setting [6], 1320 nM; under setting [7], more than 10000 nM.
Consider `CC(=O)c1c([S+]([O-])Cc2ccc(SC(F)(F)F)cc2)[nH]c2c(Cl)ccc(Cl)c2c1=O` (stereo not shown) [Compound 79, 3-acetyl-5,8-dichloro-2-((4-((trifluoromethyl)thio)benzyl)sulfinyl)quinolin-4(1H)-one], for which the half-maximal inhibitory concentration (IC50) runs as follows: under setting [1], more than 2000 nM; under setting [2], more than 2000 nM; (MRC-5 cells, read-out: IC50) more than 2000 nM; under setting [3], more than 2000 nM; under setting [4], more than 2000 nM; under setting [5], more than 2000 nM. Besides, the IC50 was more than 2000 nM under setting [6] and more than 10000 nM under setting [7].
Consider `CC(=O)c1c([S+]([O-])Cc2ccc(S(F)(F)(F)(F)F)cc2)[nH]c2c(F)ccc(F)c2c1=O` (stereo not shown) [Compound 80, 3-acetyl-5,8-difluoro-2-((4-(pentafluoro--sulfanyl)benzyl)sulfinyl)quinolin-4(1H)-one], for which the 50% inhibitory concentration (IC50) was more than 2000 nM under setting [1]; more than 2000 nM under setting [2]; more than 2000 nM (MRC-5 cells, read-out: IC50); more than 2000 nM under setting [3]; more than 2000 nM under setting [4]; more than 2000 nM under setting [5]. Also, the IC50 was more than 2000 nM under setting [6] and more than 10000 nM under setting [7].
Turning to `CC(=O)c1c([S+]([O-])Cc2ccc(C(F)(F)F)o2)[nH]c2c(F)ccc(F)c2c1=O` (stereo not shown) [Compound 81, 3-acetyl-5,8-difluoro-2-(((5-(trifluoromethyl)furan-2-yl)methyl)sulfinyl)quinolin-4(1H)-one], the IC50 is more than 2000 nM under setting [1]; more than 2000 nM under setting [2]; more than 2000 nM (MRC-5 cells, read-out: IC50); more than 2000 nM under setting [3]; more than 2000 nM under setting [4]; more than 2000 nM under setting [5]. Further, the IC50 by setting is: under setting [6], more than 2000 nM; under setting [7], more than 10000 nM.
Consider `CC(=O)c1c([S+]([O-])Cc2cc(C)on2)[nH]c2c(F)ccc(F)c2c1=O` (stereo not shown) [Compound 82, 3-acetyl-5,8-difluoro-2-(((5-methylisoxazol-3-yl)methyl)sulfinyl)quinolin-4(1H)-one], for which the IC50 is, setting by setting: under setting [1], more than 2000 nM; under setting [2], more than 2000 nM; (MRC-5 cells, read-out: IC50) more than 2000 nM; under setting [3], more than 2000 nM; under setting [4], more than 2000 nM; under setting [5], more than 2000 nM. Besides, the IC50 under setting [6] was more than 2000 nM and the IC50 under setting [7] is more than 10000 nM.
For the compound `CC(C)C(=O)c1c([S+]([O-])Cc2ccc(SC(F)(F)F)cc2)[nH]c2c(F)ccc(F)c2c1=O` (stereo not shown) [Compound 85, 5,8-difluoro-3-isobutyryl-2-((4-((trifluoromethyl)thio)benzyl)sulfinyl)quinolin-4(1H)-one], the IC50 runs as follows: under setting [1], more than 2000 nM; under setting [2], more than 2000 nM; (MRC-5 cells, read-out: IC50) more than 2000 nM; under setting [3], more than 2000 nM; under setting [4], more than 2000 nM; under setting [5], more than 2000 nM. In addition, the IC50 under setting [6] is more than 2000 nM and the half-maximal inhibitory concentration (IC50) under setting [7] is more than 10000 nM.
On to `O=C(c1ccccc1)c1c([S+]([O-])Cc2ccc(S(F)(F)(F)(F)F)cc2)[nH]c2c(F)ccc(F)c2c1=O` (stereo not shown) [Compound 87, 3-benzoyl-5,8-difluoro-2-((4-(pentafluoro--sulfanyl)benzyl)sulfinyl)quinolin-4(1H)-one], for which the IC50 runs as follows: under setting [1], more than 2000 nM; under setting [2], more than 2000 nM; (MRC-5 cells, read-out: IC50) more than 2000 nM; under setting [3], more than 2000 nM; under setting [4], more than 2000 nM; under setting [5], more than 2000 nM. For the same compound, the IC50 was more than 2000 nM under setting [6] and more than 10000 nM under setting [7].
For the compound `Cc1cc(C[S+]([O-])c2[nH]c3c(Cl)ccc(Cl)c3c(=O)c2C(=O)c2ccccc2)no1` (stereo not shown) [Compound 88, 3-benzoyl-5,8-dichloro-2-(((5-methylisoxazol-3-yl)methyl)sulfinyl)quinolin-4(1H)-one], the IC50 under setting [1] is more than 2000 nM; the IC50 under setting [2] was more than 2000 nM; the IC50 (MRC-5 cells, read-out: IC50) is more than 2000 nM; the IC50 under setting [3] is more than 2000 nM; the 50% inhibitory concentration (IC50) under setting [4] is more than 2000 nM; the IC50 under setting [5] was more than 2000 nM. For the same compound, the IC50 under setting [6] is more than 2000 nM and the 50% inhibitory concentration (IC50) under setting [7] is more than 10000 nM.
For the compound `CC(=O)c1c([S+]([O-])CN2C(=O)c3ccccc3C2=O)[nH]c2c(Cl)ccc(Cl)c2c1=O` (stereo not shown) [Compound 90, 2-(((3-acetyl-5,8-dichloro-4-oxo-1,4-dihydroquinolin-2-yl)sulfinyl)methyl)isoindoline-1,3-dione], the IC50 was more than 2000 nM under setting [1]; more than 2000 nM under setting [2]; more than 2000 nM (MRC-5 cells, read-out: IC50); more than 2000 nM under setting [3]; more than 2000 nM under setting [4]; more than 2000 nM under setting [5]. Also, the IC50 reads like this: under setting [6], more than 2000 nM; under setting [7], more than 10000 nM.
On to `COC(=O)c1ccc(C[S+]([O-])c2[nH]c3c(Cl)ccc(Cl)c3c(=O)c2C(C)=O)cc1` (stereo not shown) [Compound 91, methyl 4-(((3-acetyl-5,8-dichloro-4-oxo-1,4-dihydroquinolin-2-yl)sulfinyl)methyl)benzoate], for which the IC50 runs as follows: under setting [1], more than 2000 nM; under setting [2], more than 2000 nM; (MRC-5 cells, read-out: IC50) more than 2000 nM; under setting [3], 1800 nM; under setting [4], more than 2000 nM; under setting [5], more than 2000 nM. The IC50 under setting [6] was more than 2000 nM and the IC50 under setting [7] is more than 10000 nM.

For the origin of these results see patent US11464770B2, “Anticancer pharmaceutical composition” (NATIONAL CANCER CENTER, priority 2016, dated 2022).
